Laboratory results as given in the NIST ThermoML archive (doi:10.1021/je800325d).

Legend:
[1] = xn = mol fraction of the nth substance listed; settings: 101 kPa, Liquid
[2] = refractive index (Na D-line) (dimensionless); xn = mol fraction of the nth substance listed; settings: 101 kPa, Liquid, Standard Abbe refractometry

CC(=O)OCCC(C)C [3-methylbutyl ethanoate] + CCc1ccccc1
Settings	mass density, [1] [kg/m3]	refractive index, [2]	viscosity, [1] [mPa·s]
303.15 K, x1 = 0.0851	856.9	1.4802	0.597
303.15 K, x1 = 0.1684	858	1.4701	0.605
303.15 K, x1 = 0.2613	858.4	1.4593	0.615
303.15 K, x1 = 0.3719	859	1.4471	0.629
303.15 K, x1 = 0.4584	859.6	1.4376	0.639
303.15 K, x1 = 0.538	860.1	1.4291	0.649
303.15 K, x1 = 0.6532	861.1	1.4177	0.666
303.15 K, x1 = 0.7513	861.6	1.4112	0.681
303.15 K, x1 = 0.8475	862	1.4041	0.703
303.15 K, x1 = 0.9401	862.3	1.3983	0.726
313.15 K, x1 = 0.0851	848.8	1.4781	0.533
313.15 K, x1 = 0.1684	849.1	1.4676	0.541
313.15 K, x1 = 0.2613	849.7	1.4565	0.549
313.15 K, x1 = 0.3719	850.3	1.4425	0.559
313.15 K, x1 = 0.4584	850.9	1.4342	0.567
313.15 K, x1 = 0.538	851.3	1.4276	0.575
313.15 K, x1 = 0.6532	851.6	1.4168	0.588
313.15 K, x1 = 0.7513	851.8	1.4099	0.6
313.15 K, x1 = 0.8475	852.1	1.4035	0.619
313.15 K, x1 = 0.9401	852.3	1.3965	0.638

COC(=O)c1ccccc1 [methyl benzoate] + CCc1ccccc1
Settings	mass density, [1] [kg/m3]	refractive index, [2]	viscosity, [1] [mPa·s]
303.15 K, x1 = 0.1033	877.9	1.4911	0.656
303.15 K, x1 = 0.1927	898.9	1.4933	0.701
303.15 K, x1 = 0.2952	921.6	1.4945	0.784
303.15 K, x1 = 0.3974	943.6	1.4958	0.857
303.15 K, x1 = 0.4947	963.3	1.4968	0.947
303.15 K, x1 = 0.5866	982.3	1.4978	1.043
303.15 K, x1 = 0.6963	1000.3	1.5022	1.17
303.15 K, x1 = 0.7953	1023.3	1.5054	1.308
303.15 K, x1 = 0.9016	1053.3	1.509	1.464
303.15 K, x1 = 0.951	1056.8	1.5092	1.566
313.15 K, x1 = 0.1033	870.2	1.4888	0.583
313.15 K, x1 = 0.1927	890.3	1.49	0.641
313.15 K, x1 = 0.2952	912.7	1.4918	0.687
313.15 K, x1 = 0.3974	935	1.4928	0.75
313.15 K, x1 = 0.4947	954.1	1.4937	0.824
313.15 K, x1 = 0.5866	973.7	1.4955	0.925
313.15 K, x1 = 0.6963	992	1.4985	1.048
313.15 K, x1 = 0.7953	1010.3	1.5014	1.165
313.15 K, x1 = 0.9016	1043.3	1.5044	1.287
313.15 K, x1 = 0.951	1047.4	1.5064	1.346

COC(=O)c1ccccc1 [methyl benzoate] + Cc1ccccc1C
Settings	mass density, [1] [kg/m3]	refractive index, [2]	viscosity, [1] [mPa·s]
303.15 K, x1 = 0.0879	890.4	1.5006	0.757
303.15 K, x1 = 0.1997	911.4	1.5007	0.842
303.15 K, x1 = 0.3008	931.3	1.501	0.908
303.15 K, x1 = 0.3925	951.2	1.5012	0.975
303.15 K, x1 = 0.4928	970.9	1.5016	1.06
303.15 K, x1 = 0.5939	991.7	1.5022	1.16
303.15 K, x1 = 0.6852	1009.5	1.5055	1.252
303.15 K, x1 = 0.798	1031.6	1.5083	1.395
303.15 K, x1 = 0.8981	1052.1	1.511	1.506
303.15 K, x1 = 0.9485	1056.3	1.5115	1.593
313.15 K, x1 = 0.0879	882.3	1.497	0.664
313.15 K, x1 = 0.1997	902.1	1.4971	0.72
313.15 K, x1 = 0.3008	922.8	1.498	0.785
313.15 K, x1 = 0.3925	942.6	1.4996	0.836
313.15 K, x1 = 0.4928	962.4	1.5002	0.91
313.15 K, x1 = 0.5939	983	1.5017	0.992
313.15 K, x1 = 0.6852	1000.7	1.5038	1.07
313.15 K, x1 = 0.798	1022.5	1.5062	1.171
313.15 K, x1 = 0.8981	1042.8	1.5085	1.29
313.15 K, x1 = 0.9485	1046.7	1.5101	1.351

CC(=O)OCCC(C)C [3-methylbutyl ethanoate] + Cc1cccc(C)c1
Settings	mass density, [1] [kg/m3]	refractive index, [2]	viscosity, [1] [mPa·s]
303.15 K, x1 = 0.0877	855.8	1.483	0.561
303.15 K, x1 = 0.1726	856.5	1.4745	0.572
303.15 K, x1 = 0.3736	858.2	1.4549	0.605
303.15 K, x1 = 0.4421	858.4	1.4487	0.619
303.15 K, x1 = 0.5478	858.8	1.4398	0.643
303.15 K, x1 = 0.657	859.3	1.4297	0.666
303.15 K, x1 = 0.7478	860.1	1.4207	0.687
303.15 K, x1 = 0.8501	861	1.4101	0.708
303.15 K, x1 = 0.9465	861.9	1.4014	0.727
313.15 K, x1 = 0.0877	847.3	1.4811	0.502
313.15 K, x1 = 0.1726	848.2	1.4724	0.51
313.15 K, x1 = 0.3736	849.5	1.452	0.538
313.15 K, x1 = 0.4421	849.6	1.4456	0.549
313.15 K, x1 = 0.5478	849.8	1.435	0.568
313.15 K, x1 = 0.657	850.3	1.4248	0.587
313.15 K, x1 = 0.7478	851.1	1.4157	0.603
313.15 K, x1 = 0.8501	851.9	1.4056	0.623
313.15 K, x1 = 0.9465	852.8	1.3985	0.638

COC(=O)c1ccccc1 [methyl benzoate] + Cc1ccc(C)cc1
Settings	mass density, [1] [kg/m3]	refractive index, [2]	viscosity, [1] [mPa·s]
303.15 K, x1 = 0.0958	873	1.492	0.616
303.15 K, x1 = 0.2055	898.1	1.4939	0.693
303.15 K, x1 = 0.3011	919.3	1.4947	0.759
303.15 K, x1 = 0.399	940.9	1.4959	0.839
303.15 K, x1 = 0.4951	961.9	1.4969	0.922
303.15 K, x1 = 0.5988	984.4	1.4982	1.033
303.15 K, x1 = 0.6973	1006.2	1.5012	1.152
303.15 K, x1 = 0.7846	1024.4	1.5055	1.269
303.15 K, x1 = 0.9027	1056	1.5122	1.45
303.15 K, x1 = 0.948	1059.2	1.5104	1.561
313.15 K, x1 = 0.0958	864.7	1.4913	0.551
313.15 K, x1 = 0.2055	889.5	1.4922	0.609
313.15 K, x1 = 0.3011	911.1	1.4932	0.67
313.15 K, x1 = 0.399	932.3	1.4945	0.728
313.15 K, x1 = 0.4951	953.1	1.4952	0.803
313.15 K, x1 = 0.5988	975.7	1.4961	0.889
313.15 K, x1 = 0.6973	1000.4	1.4989	0.992
313.15 K, x1 = 0.7846	1013	1.5014	1.093
313.15 K, x1 = 0.9027	1047.3	1.5088	1.253
313.15 K, x1 = 0.948	1050.3	1.509	1.322
